The structures appear in SMILES notation.

The melting point is the temperature, or range, at which the solid turns liquid. Usually IC50 stands for the concentration that gives 50% inhibition.

For one data set, the target named is T1, EGFR tyrosine kinase (Homo sapiens, UniProt P00533).
T1 construct: Recombinant intracellular fragments of EGFR, erbB2 and erbB4; made in house; host or cells: baculovirus/Sf21 insect cells (cleared lysate used)
As to the kind of experiment: Protein tyrosine kinase phosphorylation assay, Test (a). To be noted: ATP at Km concentration; read-out: IC50 (nM) Test (a) (Inhibition of EGFR tyrosine kinase protein phosphorylation). It is filed as biochemical. Here is the method: This test measures the ability of a test compound to inhibit the phosphorylation of a tyrosine containing polypeptide substrate by EGFR, erbB2 or erbB4 tyrosine kinase enzyme.
Recombinant intracellular fragments of EGFR, erbB2 and erbB4 (accession numbers X00588, X03363 and L07868 respectively) were cloned and expressed in the baculovirus/Sf21 system. Lysates were prepared from these cells by treatment with ice-cold lysis buffer (20 mM N-2-hydroxyethylpiperizine-N′-2-ethanesulfonic acid (HEPES) pH 7.5, 150 mM NaCl, 10% glycerol, 1% Triton X-100, 1.5 mM MgCl2, 1 mM ethylene glycol-bis(β-aminoethyl ether) N′,N′,N′,N′-tetraacetic acid (EGTA), plus protease inhibitors and then cleared by centrifugation.
Constitutive kinase activity of these recombinant proteins was determined by their ability to phosphorylate a synthetic peptide (made up of a random co-polymer of Glutamic Acid, Alanine and Tyrosine in the ratio of 6:3:1). Specifically, Maxisorb™ 96-well immunoplates were coated with synthetic peptide (0.2 μg of peptide in a 200 μl phosphate buffered saline (PBS) solution and incubated at 4° C. overnight). Plates were washed in 50 mM HEPES pH 7.4 at room temperature to remove any excess unbound synthetic peptide. EGFR or erbB2 activities were assessed by incubation in peptide coated plates for 20 minutes at room temperature in 100 mM HEPES pH 7.4 at room temperature, adenosine trisphosphate (ATP) at Km concentration for the respective enzyme, 10 mM MnCl2, 0.1 mM Na3VO4, 0.2 mM DL-dithiothreitol (DTT), 0.1% Triton X-100 with test compound in DMSO (final concentration of 2.5%). Reactions were terminated by the removal of the liquid components of the assay followed by washing of the plates with PBS-T (phosphate buffered saline with 0.5% Tween 20).
The immobilised phospho-peptide product of the reaction was detected by immunological methods. Firstly, plates were incubated for 90 minutes at room temperature with anti-phosphotyrosine primary antibodies that were raised in the mouse (4G10 from Upstate Biotechnology). Following extensive washing, plates were treated with Horseradish Peroxidase (HRP) conjugated sheep anti-mouse secondary antibody (NXA931 from Amersham) for 60 minutes at room temperature. After further washing, HRP activity in each well of the plate was measured colorimetrically using 22′-Azino-di-[3-ethylbenzthiazoline sulfonate (6)] diammonium salt crystals (ABTS™ from Roche) as a substrate.
Quantification of colour development and thus enzyme activity was achieved by the measurement of absorbance at 405 nm on a Molecular Devices ThermoMax microplate reader. Kinase inhibition for a given compound was expressed as an IC50 value. […] The range of phosphorylation was calculated from the positive (vehicle plus ATP) and negative (vehicle minus ATP) control values.

A further data set deals with KB cells. As to the kind of experiment: EGFR driven KB cell proliferation assay, Test (b). The class given is cell-based. Particulars: Homo sapiens, 96 h, EGF 1 ng/ml, 4 days, MTT. Here is the method:
This assay measures the ability of a test compound to inhibit the proliferation of KB cells (human naso-pharangeal carcinoma obtained from the American Type Culture Collection (ATCC)).
KB cells were cultured in Dulbecco's modified Eagle's medium (DMEM) containing 10% foetal calf serum, 2 mM glutamine and non-essential amino acids at 37° C. in a 7.5% CO2 air incubator. Cells were harvested from the stock flasks using Trypsin/ethylaminediaminetetraacetic acid (EDTA). Cell density was measured using a haemocytometer and viability was calculated using trypan blue solution before being seeded at a density of 1.25×10^3 cells per well of a 96 well plate in DMEM containing 2.5% charcoal stripped serum, 1 mM glutamine and non-essential amino acids at 37° C. in 7.5% CO2 and allowed to settle for 4 hours.
Following adhesion to the plate, the cells are treated with or without EGF (final concentration of 1 ng/ml) and with or without compound at a range of concentrations in dimethylsulfoxide (DMSO) (0.1% final) before incubation for 4 days. Following the incubation period, cell numbers were determined by addition of 50 μl of 3-(4,5-Dimethylthiazol-2-yl)-2,5-diphenyltetrazolium bromide (MTT) (stock 5 mg/ml) for 2 hours. MTT solution was then tipped off, the plate gently tapped dry and the cells dissolved upon the addition of 100 μl of DMSO.
Absorbance of the solubilised cells was read at 540 nm using a Molecular Devices ThermoMax microplate reader. Inhibition of proliferation was expressed as an IC50 value. […] The range of proliferation was calculated from the positive (vehicle plus EGF) and negative (vehicle minus EGF) control values.

T1 sequence (P00533 669-1210 limits assumed): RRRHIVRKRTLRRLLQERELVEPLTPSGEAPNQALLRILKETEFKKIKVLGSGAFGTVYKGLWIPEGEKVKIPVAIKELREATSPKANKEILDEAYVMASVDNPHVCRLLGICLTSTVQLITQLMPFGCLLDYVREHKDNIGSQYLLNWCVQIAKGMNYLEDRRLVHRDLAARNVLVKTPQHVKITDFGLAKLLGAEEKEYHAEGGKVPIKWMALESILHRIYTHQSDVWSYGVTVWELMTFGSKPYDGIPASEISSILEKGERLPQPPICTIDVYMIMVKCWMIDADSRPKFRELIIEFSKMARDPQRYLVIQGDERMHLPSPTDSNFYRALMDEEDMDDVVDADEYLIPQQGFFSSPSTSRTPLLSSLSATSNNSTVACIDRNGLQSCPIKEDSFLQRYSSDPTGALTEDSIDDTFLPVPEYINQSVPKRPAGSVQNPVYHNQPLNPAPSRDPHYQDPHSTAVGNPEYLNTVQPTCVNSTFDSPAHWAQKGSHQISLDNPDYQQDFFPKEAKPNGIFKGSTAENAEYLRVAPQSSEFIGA

`COc1cc2c(Nc3ccc(F)c(Cl)c3)ncnc2cc1OC1CCN(C(=O)[C@@H](C)O)CC1` (hydrate or solvate) [Example 23, (2R)-1-[4-({4-[3-Chloro-4-fluoroanilino]-6methoxyquinazolin-7-yl}oxy)piperidin-1-yl]-1-oxopropan-2-ol]: the melting point is 143.6 °C.

`COc1cc2c(Nc3ccc(Cl)cc3F)ncnc2cc1OC1CCN(C(=O)[C@H](C)O)CC1` (hydrate or solvate) [Example 32] displayed a melting point of 149 °C. Turning to `COc1cc2c(Nc3ccc(Cl)cc3F)ncnc2cc1OC1CCN(C(=O)[C@@H](C)O)CC1` (hydrate or solvate) [Example 33, (2R)-1-[4-({4-[4-chloro-2-fluoroanilino]-6-methoxyquinazolin-7-yl}oxy)piperidin-1-yl]-1-oxopropan-2-ol], the melting point came out at 118 °C. The same measure, in the same setting: the result for `COc1cc2c(Nc3cccc(Cl)c3F)ncnc2cc1OC1CCN(C(=O)[C@@H]2CCCN2C)CC1` (hydrate or solvate) [Example 34, N-(3-chloro-2-fluorophenyl)-6-methoxy-7-{[1-(1-methyl-L-prolyl)piperidin-4-yl]oxy}quinazolin-4-amine] reads 193 °C.

As to `COc1cc2c(Nc3cccc(Cl)c3F)ncnc2cc1OC1CCN(C(=O)CO)CC1` [4[1], 2-[4-({4-[3-Chloro-2-fluoroanilino]-6-methoxyquinazolin-7-yl}oxy)piperidin-1-yl]-2-oxoethanol], the IC50 on EGFR tyrosine kinase is 30 nM; with KB cells, 37 nM.

Turning to `COCCC(=O)N1CCC(Oc2cc3ncnc(Nc4cccc(Cl)c4F)c3cc2OC)CC1` [4[3], N-(3-Chloro-2-fluorophenyl)-6-methoxy-7-{[1-(3-methoxypropanoyl)piperidin-4-yl]oxy}quinazolin-4-amine], the results for the IC50 on EGFR tyrosine kinase and in the data set on KB cells were 65 nM and 84 nM, respectively. In the case of `COc1cc2c(Nc3cccc(Cl)c3F)ncnc2cc1OC1CCN(C(=O)CCO)CC1` [4[4], 3-[4-({4-[3-Chloro-2-fluoroanilino]-6-methoxyquinazolin-7-yl}oxy)piperidin-1-yl]-3-oxopropan-1-ol], the figures for the IC50 on EGFR tyrosine kinase and with KB cells were 52 nM and 109 nM, respectively. The compound `COCCOCC(=O)N1CCC(Oc2cc3ncnc(Nc4cccc(Cl)c4F)c3cc2OC)CC1` [Example 2, N-(3-Chloro-2-fluorophenyl)-6-methoxy-7-({1-[(2-methoxyethoxy)acetyl]piperidin-4-yl}oxy)quinazolin-4-amine] gave a melting point of 110 to 111 °C. Besides, the IC50 on EGFR tyrosine kinase amounted to 76 nM. In addition, half-maximal inhibition in the data set on KB cells (IC50) required 112 nM. For `COCC(=O)N1CCC(Oc2cc3ncnc(Nc4cccc(Cl)c4F)c3cc2OC)CC1` [Example 3, N-(3-Chloro-2-fluorophenyl)-6methoxy-7-{[1-(methoxyacetyl)piperidin-4-yl]oxy}quinazolin-4-amine], the values for the IC50 on EGFR tyrosine kinase and in the data set on KB cells were 41 nM and 55 nM, respectively. For `COc1cc2c(Nc3cccc(Cl)c3F)ncnc2cc1OC1CCN(C(=O)[C@H](C)O)CC1` [Example 4[5], (2S)-1-[4-({4-[3-chloro-2-fluoroanilino]-6-methoxyquinazolin-7-yl}oxy)piperidin-1-yl]-1-oxopropan-2-ol], the melting point lay within 107 to 111 °C. The compound `COc1cc2c(Nc3cccc(Cl)c3F)ncnc2cc1O[C@H]1CCCN(C(=O)CN2CCN(C)CC2)C1` [Example 7, N-(3-Chloro-2-fluorophenyl)-6-methoxy-7-({(3S)-1-[(4-methylpiperazin-1-yl)acetyl]piperidin-3-yl}oxy)quinazolin-4-amine] showed a melting point of 120 to 121 °C. On to `COc1cc2c(Nc3cccc(Cl)c3F)ncnc2cc1OC1CCN(C(=O)[C@@H](C)O)CC1` [Example 9, (2R)-1-[4-({4-[3-Chloro-2-fluoroanilino]-6-methoxyquinazolin-7-yl}oxy)piperidin-1-yl]-1-oxopropan-2-ol], for which the melting point fell in the range of 189 to 189.5 °C.

(Values after patent US7569577B2, “Quinazoline derivatives as tyrosine kinase inhibitors” (Astrazeneca AB, priority 2003, dated 2009).)
